The target of one data set is T1, human AR (Homo sapiens, UniProt P10275).
T1 construct: Reporter Cells used in these assays expressed a native receptor (AR)
T1 sequence (P10275 1-920): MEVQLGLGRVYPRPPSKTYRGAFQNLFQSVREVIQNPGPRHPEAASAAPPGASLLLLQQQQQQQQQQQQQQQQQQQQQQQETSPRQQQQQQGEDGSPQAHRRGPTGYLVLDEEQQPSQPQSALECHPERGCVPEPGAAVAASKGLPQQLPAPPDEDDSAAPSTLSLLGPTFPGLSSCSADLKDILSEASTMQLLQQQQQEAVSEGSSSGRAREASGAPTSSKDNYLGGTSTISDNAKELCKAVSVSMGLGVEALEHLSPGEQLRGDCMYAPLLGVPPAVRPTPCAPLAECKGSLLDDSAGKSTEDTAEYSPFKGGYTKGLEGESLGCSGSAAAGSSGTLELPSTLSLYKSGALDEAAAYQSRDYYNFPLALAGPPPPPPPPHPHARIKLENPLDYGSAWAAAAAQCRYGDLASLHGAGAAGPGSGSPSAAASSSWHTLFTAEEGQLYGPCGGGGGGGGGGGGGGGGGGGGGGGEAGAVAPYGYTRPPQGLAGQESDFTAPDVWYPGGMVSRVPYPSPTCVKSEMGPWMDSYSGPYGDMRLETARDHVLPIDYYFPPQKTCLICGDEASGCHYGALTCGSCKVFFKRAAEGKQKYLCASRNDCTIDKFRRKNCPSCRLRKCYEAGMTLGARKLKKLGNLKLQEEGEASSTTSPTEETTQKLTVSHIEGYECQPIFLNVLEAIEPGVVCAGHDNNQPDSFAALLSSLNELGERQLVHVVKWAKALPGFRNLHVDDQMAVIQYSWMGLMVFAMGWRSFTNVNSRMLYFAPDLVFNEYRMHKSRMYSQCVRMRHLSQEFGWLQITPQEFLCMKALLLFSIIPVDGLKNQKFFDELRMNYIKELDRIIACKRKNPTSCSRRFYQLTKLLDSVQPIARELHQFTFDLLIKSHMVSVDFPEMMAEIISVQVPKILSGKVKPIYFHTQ
The data set is described as follows: Indigo Biosciences AR reporter cell assay (AR inhibition, antagonist mode). Type of data set: cell-based. As to conditions: Table 2; luciferase reporter cells, 24 hr, EC80 of agonist 5α-dihydro-11-keto testosterone; read-out: AR Inhibition Indigo Cell Based: Avg IC50. Here is the method: The aim of this study was to evaluate compounds 1-12 and the comparative compounds 1-2 for inhibition activities against human AR. Reporter Cells used in these assays expressed a native receptor (AR). The reporter gene, firefly luciferase, is functionally linked to an upstream receptor-specific genetic response element (GRE). Reporter cells were treated with eight concentrations, starting at 50 μM and following with 3.17-fold dilutions. Single treatment concentration was performed (n=1). Assay performance was validated using the reference antagonist hydroxy flutamide. • Step 1: A suspension of reporter cells was prepared in Cell Recovery Medium (CRM). Reporter cells were first supplemented with 2×-EC80 concentration of the reference agonist, 5α-dihydro-11-keto testosterone, then 100 μl of the Reporter Cell suspension was dispensed into wells of a white 96-well assay plate. • Step 2: Test compound master stocks were diluted in DMSO to generate solutions at ‘500×-concentration’ relative to the final treatment concentration and diluted directly into INDIGO's Compound Screening Medium (CSM; containing charcoal-stripped FBS) to generate ‘2×-concentration’ treatment media. This was diluted into the wells to the final concentration. Assay plates were incubated at 37° C., 5% CO2 and ~70% humidity for 24 hr. • Step 3: Following the incubation period, wells were rinsed once with Live Cell Multiplex (LCM) Buffer, then LCM substrate was added. Following incubation at room temperature for 15 min, LCM substrate was discarded and 100 μL/well of luciferase detection reagent was added. Subsequently, fluorescence was measured to determine the relative number of live cells per assay well. RLU values were quantified after a 10 min incubation period at room temperature to determine nuclear receptor activities.
For orientation: Reporter assays use an easily measured gene product as a stand-in for the process of interest.

The target of another data set is T2, Human androgen receptors (Homo sapiens, UniProt P10275, T878A).
T2 construct: Human androgen receptors obtained from human LNCaP cells were used; host or cells: human LNCaP cells
T2 sequence (P10275 1-920 T878A): T1 sequence (P10275 1-920) with T878A
The data set is described as follows: Biochemical AR LBD antagonism (Eurofins AR radioligand binding assay). As to conditions: Table 4; read-out: Biochemical AR LBD Antagonism: Average IC50. The method, then:
Human androgen receptors obtained from human LNCaP cells were used in modified HEPES buffer pH 7.4. A 70 μg‡ aliquot was incubated with 0.5 nM [3H] Methyltrienolone for 20 h at 4° C. Non-specific binding was estimated in the presence of 1 μM testosterone. Receptors were filtered and washed, the filters were then counted to determine [3H] Methyltrienolone specifically bound. Compounds were screened at 10 μM.
Furthermore, as noted earlier, most clinically relevant AR inhibitors target the ligand binding domain (LBD) of the androgen receptor, and these inhibitors can lose efficacy due to point mutations in the LBD. Given that the AR protein contains multiple sub-domains, targeting other domains is an attractive approach for new inhibitors. […] Therefore, the compounds as described herein may be interacting with other subdomains in the AR protein, namely the N-terminal domain.

Data set [1] is described as follows: Human liver microsome stability. Type of data set: in vitro ADME. The following applies: Table 6, human liver microsomes, 1 μM. The method, then: (§1) Preincubation mixture 2.5 μL Test Cpd. +75 μL Liver microsomes (human or mouse source) @ 3.33 mg/mL+85 µL of 100 mM potassium phosphate buffer (preincubate for 10 min @ 37° C.). Incubation mixture 62 μL of cofactor (2.85 mM)+Remaining incubation mixture (Incubated for 60 min @ 37° C.). Sample preparation 25 μL incubation mixture+200 μL of acetonitrile containing internal standard+Vortex 5 min @ 1200 rpm+Centrifuge 10 min @ 4000 rpm. Supernatant diluted 2-fold with water and injected on LC-MS/MS.
Background: Liver microsomes are vesicles of endoplasmic reticulum, rich in cytochrome P450 enzymes.

A short description of data set [2]: Mouse liver microsome stability. As to conditions: Table 6, mouse liver microsomes, 1 μM. Type of data set: in vitro ADME. Here is the method: as §1

Numbering of substitutions follows the chain as printed.

Usually IC50 stands for the midpoint of a concentration-inhibition curve. With `COc1cc([C@@H](C)Nc2ccc3nnc(C(F)(F)F)n3n2)ccc1F` [Compound 6, (R)—N-(1-(4-fluoro-3-methoxyphenyl)ethyl)-3-(trifluoromethyl)-[1,2,4]triazolo[4,3-b]pyridazin-6-amine], the IC50 at human AR is 51 to 500 nM; on Human androgen receptors, more than 501 nM. Also, the “Human LM: Rem @ 60 min” value in data set [1] was “+++ (>60.1: “+++”)”. The “Mouse LM: Rem @ 60 min” value in data set [2] was “+ (0-30: “+”)”.

In the case of `COc1cc(Cl)cc([C@@H](C)Nc2ccc3nnc(C(F)(F)F)n3n2)c1` [Compound 7, (R)—N-(1-(3-chloro-5-methoxyphenyl)ethyl)-3-(trifluoromethyl)-[1,2,4]triazolo[4,3-b]pyridazin-6-amine], the IC50 on human AR and on Human androgen receptors was 51 to 500 nM throughout. Also, in data set [1], the “Human LM: Rem @ 60 min” value was “+++ (>60.1: “+++”)”. Also, the “Mouse LM: Rem @ 60 min” value in data set [2] is reported as “+ (0-30: “+”)”.

Consider `C[C@@H](Nc1ccc2nnc(C(F)(F)F)n2n1)c1cc(Cl)cc(Cl)c1` [Compound 8, (R)—N-(1-(3,5-dichlorophenyl)ethyl)-3-(trifluoromethyl)-[1,2,4]triazolo[4,3-b]pyridazin-6-amine], for which the IC50 on human AR was 51 to 500 nM; on Human androgen receptors it was more than 501 nM. Besides, the “Human LM: Rem @ 60 min” value in data set [1] is “+++ (>60.1: “+++”)”. In addition, in data set [2], the “Mouse LM: Rem @ 60 min” value is “+++ (>60.1: “+++”)”.

`Cc1nnc2ccc(N[C@H](C)c3ccc(F)cc3)nn12` [Compound 10, (R)—N-(1-(4-fluorophenyl)ethyl)-3-methyl-[1,2,4]triazolo[4,3-b]pyridazin-6-amine]: the values for the IC50 at human AR and at Human androgen receptors were 51 to 500 nM and more than 501 nM, respectively. For the same compound, in data set [1], the “Human LM: Rem @ 60 min” value is on record as “+++ (>60.1: “+++”)”. The “Mouse LM: Rem @ 60 min” value in data set [2] is listed as “+++ (>60.1: “+++”)”.

In the case of `C[C@@H](Nc1ccc2nnc(C(F)F)n2n1)c1ccc(F)cc1` [Compound 12], the IC50 at human AR was 51 to 500 nM; on Human androgen receptors, more than 501 nM. In addition, the “Human LM: Rem @ 60 min” value in data set [1] is recorded as “+++ (>60.1: “+++”)”. The “Mouse LM: Rem @ 60 min” value in data set [2] was “+++ (>60.1: “+++”)”.
